Converted amounts (≈) assume the structure as drawn.
Tests used:
[1] = target: Mitogen-activated protein kinase; ERK1/ERK2 (Homo sapiens, UniProt P27361+P28482); assay: Inhibition of ERK1/2 phosphorylation at Thr202/Tyr204 residues in human KYSE520 cells incubated for 1 hrs by Western blot analysis; assay type: cell-based
[2] = Metabolic stability in mouse liver microsome assessed as intrinsic clearance at […] preincubated for 5 mins followed by NADPH addition and measured after 20 mins by LC-MS analysis; assay type: ADME; conditions: liver microsomes, dose 2.5 µM, time 25 min, read-out: CLH
[3] = Metabolic stability in human liver microsome assessed as intrinsic clearance at […] preincubated for 5 mins followed by NADPH addition and measured after 20 mins by LC-MS analysis; assay type: ADME; conditions: liver microsomes, dose 2.5 µM, time 25 min, read-out: CLH
[4] = Metabolic stability in mouse hepatocyte assessed as intrinsic clearance incubated for 1 to 2 hrs by LC-MS analysis; assay type: ADME, cell-based; conditions: hepatocytes, time 1-2 hrs, read-out: CLH
[5] = Metabolic stability in human hepatocyte assessed as intrinsic clearance incubated for 1 to 2 hrs by LC-MS analysis; assay type: ADME, cell-based; conditions: hepatocytes, time 1-2 hrs, read-out: CLH
[6] = Permeability of compound from apical to basolateral side in LLC-PK1 cells incubated for 2 hrs by LC-MS/MS analysis; assay type: ADME, cell-based, Sus scrofa; conditions: pig, read-out: permeability
[7] = target: T1, Tyrosine-protein phosphatase non-receptor type 11 (Homo sapiens, UniProt Q06124); assay: Allosteric inhibition of recombinant full length 6His-tagged SHP2 (2 to 527 residues) (unknown origin) expressed in Escherichia coli using DiFMUP as substrate incubated for 15 mins by microplate reader analysis
T1 sequence (Q06124 whole entry): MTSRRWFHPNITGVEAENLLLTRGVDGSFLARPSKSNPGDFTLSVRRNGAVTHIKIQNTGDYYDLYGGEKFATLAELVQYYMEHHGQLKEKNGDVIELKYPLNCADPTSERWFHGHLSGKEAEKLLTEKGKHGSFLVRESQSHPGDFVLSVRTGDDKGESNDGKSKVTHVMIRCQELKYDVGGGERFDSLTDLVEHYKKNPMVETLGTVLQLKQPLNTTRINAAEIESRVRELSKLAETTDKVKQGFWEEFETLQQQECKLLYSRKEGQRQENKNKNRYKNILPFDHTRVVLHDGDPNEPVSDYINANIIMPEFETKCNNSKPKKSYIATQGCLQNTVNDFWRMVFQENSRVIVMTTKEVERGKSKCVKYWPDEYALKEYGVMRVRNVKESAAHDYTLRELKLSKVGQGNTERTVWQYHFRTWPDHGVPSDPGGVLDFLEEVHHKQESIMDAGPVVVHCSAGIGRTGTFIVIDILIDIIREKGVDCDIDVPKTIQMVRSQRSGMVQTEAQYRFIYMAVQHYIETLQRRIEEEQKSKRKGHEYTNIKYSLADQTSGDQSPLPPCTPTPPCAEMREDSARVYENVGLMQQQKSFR

[8] = Solubility of the compound in FaSSIF at 1 mg/ml incubated for 24 hrs by LC-MS/MS analysis; assay type: physicochemical

Compound | IC50 [1] | CLint scaled at […] [2] | CLint scaled at […] [3] | CLint scaled [4] | CLint scaled at 10000 µM [5] | Papp A→B at 2 h [6] | IC50 [7] | solubility at 24 h [8]
Nc1nccc(Sc2ccc3nc(N4CCC5(CC4)Cc4ncc(F)cc4[C@H]5N)cnc3n2)c1Cl | 6 nM | 47 mL/min/kg | 13 mL/min/kg | 26 mL/min/kg | 12 mL/min/kg | 9 ×10⁻⁶ cm/s | – | –
Nc1nccc(Sc2ccc3nc(N4C[C@H]5C[C@@H](C4)[C@H]5N)cnc3n2)c1Cl | 227 nM | 28 mL/min/kg | 4 mL/min/kg | 23 mL/min/kg | 5 mL/min/kg | 14 ×10⁻⁶ cm/s | – | –
CC1(N)CCN(c2cnc3c(Sc4cccc(Cl)c4Cl)cnn3c2)CC1 | > 20000 nM | – | – | – | – | – | 634 nM | –
COc1nccc(Sc2ccc3nc(N4CCC(C)(N)CC4)cnc3n2)c1Cl | 660 nM | 20 mL/min/kg | 6 mL/min/kg | 7 mL/min/kg | 2 mL/min/kg | 12 ×10⁻⁶ cm/s | 355 nM | –
Cc1ccc2c(c1)[C@@H](N)C1(CCN(c3cnc4nc(Sc5ccnc(N)c5Cl)ccc4n3)CC1)C2 | 17 nM | 25 mL/min/kg | 6 mL/min/kg | 33 mL/min/kg | 10 mL/min/kg | – | – | –
CC1(N)CCN(c2ccc(Sc3cccc(Cl)c3Cl)n3nccc23)CC1 | > 20000 nM | – | – | – | – | – | 3690 nM | –
CC1(N)CCN(c2cnc3nc(Sc4cccn5nccc45)ccc3n2)CC1 | 1388 nM | – | – | – | – | 14 ×10⁻⁶ cm/s | – | –
CC1(N)CCN(c2cnc3nc(-c4cccc(Cl)c4Cl)ccc3n2)CC1 | 471 nM | 25 mL/min/kg | 3 mL/min/kg | 8 mL/min/kg | 2 mL/min/kg | – | – | –
Nc1nccc(Sc2ccc3nc(N4CCC5(CC4)Cc4ccccc4[C@H]5N)cnc3n2)c1Cl | 8 nM | 19 mL/min/kg | 8 mL/min/kg | 34 mL/min/kg | 10 mL/min/kg | 1 ×10⁻⁶ cm/s | – | 60 µg/mL (≈ 122 µM)
CC1(N)CCN(c2cnc3nc(-c4cccc(F)c4Cl)ccc3n2)CC1 | 1184 nM | – | – | – | – | 19 ×10⁻⁶ cm/s | 344 nM | –
CC1(N)CCN(c2cnc3nc(Sc4cccc(C#N)c4Cl)ccc3n2)CC1 | 991 nM | 23 mL/min/kg | 9 mL/min/kg | 12 mL/min/kg | 7 mL/min/kg | 9 ×10⁻⁶ cm/s | – | –
CNC1(C)CCN(c2cnc3nc(Sc4ccnc(N)c4Cl)ccc3n2)CC1 | 202 nM | 20 mL/min/kg | 3 mL/min/kg | 16 mL/min/kg | 5 mL/min/kg | 12 ×10⁻⁶ cm/s | – | 1000 µg/mL (≈ 2400 µM)
CC1(N)CCN(c2cnc3nc(-c4cccc5ccccc45)ccc3n2)CC1 | 510 nM | 22 mL/min/kg | 3 mL/min/kg | 8 mL/min/kg | 2 mL/min/kg | 13 ×10⁻⁶ cm/s | – | –
CC1(CN)CCN(c2cnc3nc(Sc4ccnc(N)c4Cl)ccc3n2)CC1 | 68 nM | 14 mL/min/kg | 5 mL/min/kg | 16 mL/min/kg | 2 mL/min/kg | 10 ×10⁻⁶ cm/s | – | 909 µg/mL (≈ 2190 µM)
Nc1nccc(Sc2ccc3nc(N4[C@H]5CC[C@H]4CC(N)C5)cnc3n2)c1Cl (some centres not stated) | 28 nM | 18 mL/min/kg | 3 mL/min/kg | 17 mL/min/kg | 2 mL/min/kg | 3 ×10⁻⁶ cm/s | – | 1000 µg/mL (≈ 2420 µM)
COc1cccc(Sc2ccc3nc(N4CCC(C)(N)CC4)cnc3n2)c1Cl | 786 nM | 51 mL/min/kg | 9 mL/min/kg | 45 mL/min/kg | 9 mL/min/kg | – | 104 nM | –
CC1(N)CCN(c2cnc3nc(Sc4cccc(Cl)c4Cl)ccc3n2)CC1 | 1068 nM | – | – | – | – | – | 47 nM | –
Nc1nccc(Sc2ccc3nc(N4CCC5(CC4)Cc4cc(F)ccc4[C@H]5N)cnc3n2)c1Cl | 10 nM | 17 mL/min/kg | 5 mL/min/kg | 37 mL/min/kg | 12 mL/min/kg | 6 ×10⁻⁶ cm/s | – | –
Nc1nccc(Sc2ccc3nc(N4CCC5(CC4)C[C@@H](O)C[C@H]5N)cnc3n2)c1Cl | 142 nM | 10 mL/min/kg | – | 31 mL/min/kg | 8 mL/min/kg | 1 ×10⁻⁶ cm/s | – | –
CC1(N)CCN(c2cnc(-c3cccc(Cl)c3Cl)c(N)n2)CC1 | 254 nM | – | – | – | – | – | – | –
Cc1ccc2c(n1)CC1(CCN(c3cnc4nc(Sc5ccnc(N)c5Cl)ccc4n3)CC1)[C@@H]2N | 17 nM | 41 mL/min/kg | 14 mL/min/kg | 35 mL/min/kg | 15 mL/min/kg | 10 ×10⁻⁶ cm/s | – | –
COc1ccc2c(c1)[C@@H](N)C1(CCN(c3cnc4nc(Sc5ccnc(N)c5Cl)ccc4n3)CC1)C2 | 29 nM | 21 mL/min/kg | 6 mL/min/kg | 33 mL/min/kg | 11 mL/min/kg | – | 47 nM | –
CC1(N)CCN(c2cnc3c(cnn3-c3cccc(Cl)c3Cl)n2)CC1 | 1951 nM | – | – | – | – | – | 1930 nM | –
Nc1nccc(Sc2ccc3nc(N4CCC[C@H](N)CC4)cnc3n2)c1Cl | 84 nM | 19 mL/min/kg | 4 mL/min/kg | 8 mL/min/kg | 3 mL/min/kg | 1 ×10⁻⁶ cm/s | 102 nM | –
CC1(N)CCN(c2cnc3nc(Sc4ccnc(N)c4Cl)ccc3n2)CC1 | 58 nM | 30 mL/min/kg | 3 mL/min/kg | 8 mL/min/kg | 2 mL/min/kg | 10 ×10⁻⁶ cm/s | – | –
CC1(N)CCN(c2ccnc3c(Sc4cccc(Cl)c4Cl)cnn23)CC1 | > 20000 nM | – | – | – | – | – | 530 nM | –
CC1(N)CCN(c2cnc3nc(Oc4cccc(Cl)c4Cl)ccc3n2)CC1 | 767 nM | 18 mL/min/kg | 4 mL/min/kg | 10 mL/min/kg | 2 mL/min/kg | 11 ×10⁻⁶ cm/s | – | –
COc1cnc2c(c1)[C@@H](N)C1(CCN(c3cnc4nc(Sc5ccnc(N)c5Cl)ccc4n3)CC1)C2 | 8 nM | 29 mL/min/kg | 7 mL/min/kg | 30 mL/min/kg | 12 mL/min/kg | 6 ×10⁻⁶ cm/s | – | –
CC1(N)CCN(c2cnc3cc(-c4cccc(Cl)c4Cl)ccc3n2)CC1 | > 20000 nM | – | – | – | – | – | – | –
CC1(N)CCN(c2ncc(Sc3cccc(Cl)c3Cl)n3nccc23)CC1 | 2785 nM | – | – | – | – | – | 208 nM | –

Source: ChEMBL document CHEMBL5390322, “Discovery of 5-Azaquinoxaline Derivatives as Potent and Orally Bioavailable Allosteric SHP2 Inhibitors” (ACS Med Chem Lett, 2023)
